Source: US10945932B2, “Prebiotic oral care compositions containing carboxylic acids” (COLGATE-PALMOLIVE COMPANY, priority 2013, dated 2021)
Read-outs that look alike come from different tables or passages of the source.

Tests used:
Streptococcus mutans = experiment: Biofilm growth assay in BHI, crystal violet; format: cell-based; conditions: S mutans
Description: (§1) Late exponential growth phase liquid cultures were prepared by transferring the respective bacterium from blood agar plates to BHI and overnight incubation at 37° C. in an anaerobic atmosphere for A. viscosus, V. parvula, F. nucleatum, P. gingivalis, P. intermedia, T. forsythia, A. naeslundii, and C. sputigena, and in a 5% CO2 environment for S. salivarius, S. sanguinis, S. mitis, A. actinomycetemcomitans, S. mutans, and S. gordonii. […] Additionally, for each bacterium tested, a background control, to correct for background staining, was added. This background control contained the bacterium tested and 0.03 weight % chlorhexidine, as an antiseptic. Plates were incubated as previously described. After 48 hrs the supernatant was removed from the wells of the plates. The wells were washed twice with 1×100 μL/PBS (phosphate buffered saline), fixed for 20 minutes with 96% vol. ethanol (96% vol. solution in water) and the biofilm retained at the bottom of the wells was stained with 1 weight % crystal violet (1 weight % solution in water). […] Quantification of the stained biofilm was performed by measuring the absorbance at 630 nm using a Multiskan Ascent microplate reader (Thermo Scientific).

[1] = tested on: Aggregatibacter actinomycetemcomitans; experiment: Biofilm growth assay in BHI, crystal violet; format: cell-based; conditions: A actinomycetemcomitans
Description: as §1

Veillonella parvula [2] = experiment: Biofilm growth assay in BHI, crystal violet; format: cell-based; conditions: V parvula
Description: as §1

Fusobacterium nucleatum [3] = experiment: Biofilm growth assay in BHI, crystal violet; format: cell-based; conditions: F nucleatum
Description: as §1

Streptococcus salivarius = experiment: Biofilm growth assay in BHI, crystal violet; format: cell-based; conditions: S salivarius
Description: as §1

Porphyromonas gingivalis = conditions: P gingivalis, BHI
Description: (§2) Late exponential growth phase liquid cultures were prepared by transferring the respective bacterium from blood agar plates to BHI and overnight incubation at 37° C. in an anaerobic atmosphere for A. viscosus, V. parvula, F. nucleatum, P. gingivalis, P. intermedia, T forsythia, A. naeslundii, and C. sputigena, and in a 5% CO2 environment for S. salivarius, S. sanguinis, S. mitis, A. actinomycetemcomitans, S. mutans, S. sobrinus and S. gordonii. Overnight cultures were transferred to BHI and adjusted to a concentration of 1×10^7 CFU/ml (colony forming units per ml) by measuring the optical density at 600 nm (OD600) (BioRad SmartSpec 3000). For each strain, 200 μl of the bacterial suspension was added to a 96-well plate containing 20 μl of the respective carboxylic acids. Final concentrations of the carboxylic acids were set to 5, 10, 20 and 25 μmol/ml. […] Plates were incubated as previously described.
(§3) For each combination of bacterium/carboxylic acid, and for each of their respective controls (i.e. the particular bacterium in the nutritionally rich medium with no carboxylic acid), the optical density was measured at 630 nm (OD630) at 0 h, 24 h and 48 h (Thermo Scientific Multiskan Ascent). Additionally, the OD630 for combinations of bacterium/carboxylic acid grown in a 5% CO2 environment were also measured every hour between 0 h and 9 h.
(§4) The experiment was carried out on three different days (thus providing 3 biological replicas) and on each day the experiment was carried out in quadruple (thus providing 4 technical replicas) for each combination of bacterium with carboxylic acid and for each control. For each day and for each combination, the average (mean) of the values obtained (as detailed above) for the four technical replicas was calculated to provide a single value for each combination on each day.

Streptococcus gordonii = conditions: S gordonii, BHI
Description: as §2, §3, §4

Veillonella parvula [4] = conditions: V parvula, BHI
Description: as §2, §3, §4

Fusobacterium nucleatum [5] = conditions: F nucleatum, BHI
Description: as §2, §3, §4

Prevotella intermedia = conditions: P intermedia, BHI
Description: as §2, §3, §4

N[C@@H](CC(=O)O)C(=O)O [L-aspartic acid]
biofilm growth, OD at 630 nm (crystal violet) at 48 hrs divided by OD of control (control = 1) (Streptococcus mutans; 5 μmol/ml): 0.0000 | biofilm growth, OD at 630 nm (crystal violet) at 48 hrs divided by OD of control (control = 1) (Streptococcus mutans; 10 μmol/ml): 0.0000 | biofilm growth, OD at 630 nm (crystal violet) at 48 hrs divided by OD of control (control = 1) (Streptococcus mutans; 20 μmol/ml): 0.1923 | biofilm growth, OD at 630 nm (crystal violet) at 48 hrs divided by OD of control (control = 1) (Streptococcus mutans; 25 μmol/ml): 0.0000 | biofilm growth, OD at 630 nm (crystal violet) at 48 hrs divided by OD of control (control = 1) ([1]; 5 μmol/ml): 0.6182 | biofilm growth, OD at 630 nm (crystal violet) at 48 hrs divided by OD of control (control = 1) ([1]; 10 μmol/ml): 0.5044 | biofilm growth, OD at 630 nm (crystal violet) at 48 hrs divided by OD of control (control = 1) ([1]; 20 μmol/ml): 0.4857 | biofilm growth, OD at 630 nm (crystal violet) at 48 hrs divided by OD of control (control = 1) ([1]; 25 μmol/ml): 0.5553 | biofilm growth, OD at 630 nm (crystal violet) at 48 hrs divided by OD of control (control = 1) (Veillonella parvula [2]; 5 μmol/ml): 1.1641 | biofilm growth, OD at 630 nm (crystal violet) at 48 hrs divided by OD of control (control = 1) (Veillonella parvula [2]; 10 μmol/ml): 1.2799 | biofilm growth, OD at 630 nm (crystal violet) at 48 hrs divided by OD of control (control = 1) (Veillonella parvula [2]; 20 μmol/ml): 1.5344 | biofilm growth, OD at 630 nm (crystal violet) at 48 hrs divided by OD of control (control = 1) (Veillonella parvula [2]; 25 μmol/ml): 1.6960 | biofilm growth, OD at 630 nm (crystal violet) at 48 hrs divided by OD of control (control = 1) (Fusobacterium nucleatum [3]; 5 μmol/ml): 1.2145 | biofilm growth, OD at 630 nm (crystal violet) at 48 hrs divided by OD of control (control = 1) (Fusobacterium nucleatum [3]; 10 μmol/ml): 0.9710 | biofilm growth, OD at 630 nm (crystal violet) at 48 hrs divided by OD of control (control = 1) (Fusobacterium nucleatum [3]; 20 μmol/ml): 0.9621 | biofilm growth, OD at 630 nm (crystal violet) at 48 hrs divided by OD of control (control = 1) (Fusobacterium nucleatum [3]; 25 μmol/ml): 0.8549 | biofilm growth, OD at 630 nm (crystal violet) at 48 hrs divided by OD of control (control = 1) (Streptococcus salivarius; 5 μmol/ml): 1.4152 | biofilm growth, OD at 630 nm (crystal violet) at 48 hrs divided by OD of control (control = 1) (Streptococcus salivarius; 10 μmol/ml): 1.9207 | biofilm growth, OD at 630 nm (crystal violet) at 48 hrs divided by OD of control (control = 1) (Streptococcus salivarius; 20 μmol/ml): 2.4799 | biofilm growth, OD at 630 nm (crystal violet) at 48 hrs divided by OD of control (control = 1) (Streptococcus salivarius; 25 μmol/ml): 3.0682 | extent of growth, maximal OD630 over 48 hr divided by maximal OD of control (control = 1) (Porphyromonas gingivalis; 5 μmol/ml): 1.0608 | extent of growth, maximal OD630 over 48 hr divided by maximal OD of control (control = 1) (Porphyromonas gingivalis; 10 μmol/ml): 1.0376 | extent of growth, maximal OD630 over 48 hr divided by maximal OD of control (control = 1) (Porphyromonas gingivalis; 20 μmol/ml): 1.0578 | extent of growth, maximal OD630 over 48 hr divided by maximal OD of control (control = 1) (Porphyromonas gingivalis; 25 μmol/ml): 1.0084 | extent of growth, maximal OD630 over 48 hr divided by maximal OD of control (control = 1) (Streptococcus gordonii; 5 μmol/ml): 0.9448 | extent of growth, maximal OD630 over 48 hr divided by maximal OD of control (control = 1) (Streptococcus gordonii; 10 μmol/ml): 0.9400 | extent of growth, maximal OD630 over 48 hr divided by maximal OD of control (control = 1) (Streptococcus gordonii; 20 μmol/ml): 0.9583 | extent of growth, maximal OD630 over 48 hr divided by maximal OD of control (control = 1) (Streptococcus gordonii; 25 μmol/ml): 0.9466 | extent of growth, maximal OD630 over 48 hr divided by maximal OD of control (control = 1) (Veillonella parvula [4]; 5 μmol/ml): 1.0851 | extent of growth, maximal OD630 over 48 hr divided by maximal OD of control (control = 1) (Veillonella parvula [4]; 10 μmol/ml): 1.1168 | extent of growth, maximal OD630 over 48 hr divided by maximal OD of control (control = 1) (Veillonella parvula [4]; 20 μmol/ml): 1.1378 | extent of growth, maximal OD630 over 48 hr divided by maximal OD of control (control = 1) (Veillonella parvula [4]; 25 μmol/ml): 1.1498 | extent of growth, maximal OD630 over 48 hr divided by maximal OD of control (control = 1) (Fusobacterium nucleatum [5]; 5 μmol/ml): 0.7922 | extent of growth, maximal OD630 over 48 hr divided by maximal OD of control (control = 1) (Fusobacterium nucleatum [5]; 10 μmol/ml): 0.7973 | extent of growth, maximal OD630 over 48 hr divided by maximal OD of control (control = 1) (Fusobacterium nucleatum [5]; 20 μmol/ml): 0.8395 | extent of growth, maximal OD630 over 48 hr divided by maximal OD of control (control = 1) (Fusobacterium nucleatum [5]; 25 μmol/ml): 0.8720 | extent of growth, maximal OD630 over 48 hr divided by maximal OD of control (control = 1) (Prevotella intermedia; 5 μmol/ml): 1.0755 | extent of growth, maximal OD630 over 48 hr divided by maximal OD of control (control = 1) (Prevotella intermedia; 10 μmol/ml): 1.1717 | extent of growth, maximal OD630 over 48 hr divided by maximal OD of control (control = 1) (Prevotella intermedia; 20 μmol/ml): 1.1438 | extent of growth, maximal OD630 over 48 hr divided by maximal OD of control (control = 1) (Prevotella intermedia; 25 μmol/ml): 1.1396
